# In patent US20020182179A1, “HIV Therapy” (priority 1999, published 2002):
# Experiments:
# [1] = target: HIV-1 protease (Human immunodeficiency virus type 1 group M subtype B, UniProt P04585); conditions: Phase I studies; cited from earlier work
# [2] = preclinical; po and IV; cited from earlier work
# [3] = test system: HIV-1; conditions: clinical use; cited from earlier work
# [4] = test system: HIV-1-LAI strain; assay: in vitro anti-HIV-1 activity in PHA-P-activated PBMCs, RT activity in cell supernatants; assay type: cell-based
# Experimental: Healthy PBMCs were separated from a buffy-coat of one HIV-seronegative blood donor by Ficoll-Hypaque density gradient centrifugation. PBMCs were activated by 1 μg/ml phytohemagglutinin (PHA-P) for two days in cell culture medium A: RPMI 1640 supplemented with 10% heat-inactivated (+56° C., 45 min.) fetal calf plasma (FCS), 2 mM L-glutamine and a tri-antibiotic mixture (penicillin, streptomycin, neomycin; PSN). After these two days, cells were washed and cultured at one million cell per milliliter in cell culture medium B: cell culture medium A supplemented with 20 IU/ml recombinant human interleukin-2. Cells were maintained at +37° C. in a 5% CO2-air humidified atmosphere.
# Experiments were repeated twice with cells of other blood donors. In total, three independent experiments were performed. […]
# 200,000 PHA-P-activated PBMCs were added to each well of 96-well microplates. […] At day 7, RT activity were determined in cell supernatants, and potential cytotoxic effects of drugs and drug combinations were evaluated by microscopic observation.
# Viral replication was measured by determining reverse transcriptase (“RT”) activity in cell supernatants using Retro-Sys® kit, according to manufacturer's recommendations (Innovagen, Lund, Sweden).
# Effective doses were calculated using cumulative RT activities with Chou J. and T C. microcomputer software.
# [5] = test system: duck HBV; conditions: preclinical; cited from earlier work
compound,measurement,setting,value
Cc1cccc(C)c1OCC(=O)N[C@@H](Cc1ccccc1)[C@@H](O)C[C@H](Cc1ccccc1)NC(=O)[C@H](C(C)C)N1CCCNC1=O [ABT-378],potency relative to ritonavir,[1],^9Phase I Studies show ABT-378 to be 10X more potent than ritonavir; see PharmaProjects sections J5A & J5Z.
"Nc1nc(N)c2ncn([C@H]3CO[C@@H](CO)O3)c2n1 [DAPD, (−)-beta-D-2,6,-diaminopurine dioxolane]",activity by route of administration,[2],"^10Preclinical; active po and IV; DAPD is a prodrug of another dioxolene purine, DXG. See PharmaProjects, sections J5A & J5Z"
CC(C)c1nc(CN(C)C(=O)N[C@H](C(=O)N[C@@H](Cc2ccccc2)C[C@H](O)[C@H](Cc2ccccc2)NC(=O)OCc2cncs2)C(C)C)cs1 [Ritonavir],adverse effects,[3],troublesome adverse effects
PEG12000-IFN-alfa2b: conjugate of interferon alfa-2b with polyethylene glycol of average molecular weight 12000 via a urethane linkage,effect on the in vitro anti HIV-1 activity of ribavirin,[4]; PHA-P-activated PBMCs infected with HIV-1-LAI,increased the in vitro anti HIV-1 activity of ribavirin
same,inhibition of HIV replication in vitro,"[4]; PHA-P-activated PBMCs, doses corresponding to plasmatic concentrations observed in animals and man",inhibited the HIV replication
"beta-L-2′, 3′-dicleoxy-5-fluorocytidene [Beta-L-FD4]",activity in duck HBV model,[5],"^9Preclinical; active in duck HBV model; see PharmaProjects, sections J5A & J5Z"
